Patent US10472341B2, “Bicyclic tetrahydrothiazepine derivatives useful for the treatment of neoplastic and/or infectious diseases” (APEIRON BIOLOGICS AG, priority 2015, dated 2019)

What was measured:
[1] = system: aCD3/aCD28-stimulated human CD4+-T-cells; test: IL-2 production and activation markers in aCD3/aCD28 stimulated isolated human CD4+-T-cells; type: cell-based; settings: IL-2 production at 3 μM compound
Procedure, shortened: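 CD4+ T cells isolated from buffy-coat PBMCs by microbeads were plated in Xvivo medium (1.5*10^5 cells/well) and stimulated with anti-CD3/28 mAbs plus compound. IL-2 measured by ELISA in supernatants at 24 h or 48 h; CD25 and proliferation by flow cytometry, CD69 at 24 h. Activity classes based on IL-2 at 3 μM compound.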

[2] = system: CD8 T cells & M21 tumor cells; test: CD8 T cells from M21-prestimulated PBMCs restimulated with M21 tumor cells, with or without PD-1 blockade; type: cell-based, human
Protocol: For experiments investigating effects of PD-1 blockade, PBMCs were preincubated with 1 h UV-irradiated M21 tumor cells (50000 tumor cells per 1 Mill. PBMCs) for 14 days. […] Compounds and anti-PD-1 antibody (Nivolumab) or control antibody without direct effects on CD8 T cells (Ipilimumab) were added where indicated.
[…] Example 107, no antibody (no Ig), anti-PD-1 antibody (Nivolumab) or control antibody without direct effects on CD8 T cells (Ipilimumab) were included where indicated.

non-stimulated PBMCs = test: Non-stimulated PBMCs: cytokine secretion and signs of T-cell activation; type: cell-based, human
From the text: This is an important finding for compounds that shall selectively act on T cells which have been activated by presence of antigen from pathogens or tumors, but shall not lead to an unwanted general activation of all T cells of a patient.

[3] = Ex. 107 0.03 μM, with Ipilimumab
[4] = Ex. 107 0.03 μM, with Nivolumab
[5] = Ex. 107 0.1 μM, with Ipilimumab
[6] = Ex. 107 0.3 μM, with Ipilimumab

Cl.N[C@H]1CS(=O)(=O)c2cc(F)c(C(=O)N[C@H]3CC3(F)F)cc2N(Cc2ccc(Cl)cc2)C1=O (single isomer, unassigned) [Example 107]
Activity Class CD4+ [1]: A (IL-2 production at 3 μM compound concentration >10 ng/mL)
enhancement of cytokine production ([2]; CD8 T cells in the absence of tumor cells): such effect was not detected in the absence of tumor cells
production of IL-2 and IFN-gamma ([2]; CD8 T cells restimulated with M21 tumor cells): enhanced production of both cytokines specifically upon tumor cell contact
Average Granzyme B ([2]; Ex. 107 0.03 μM, no Ig): 1.971 ng/mL
Average IFN-g ([2]; Ex. 107 0.03 μM, no Ig): 0.059 ng/mL
Average IL-2 ([2]; Ex. 107 0.03 μM, no Ig): 0.048 ng/mL
Average Number of living M21 tumor cells ([2]; Ex. 107 0.03 μM, no Ig): 16433
Average Granzyme B [2, 3]: 1.639 ng/mL
Average IFN-g [2, 3]: 0.057 ng/mL
Average IL-2 [2, 3]: 0.041 ng/mL
Average Number of living M21 tumor cells [2, 3]: 21424
Average Granzyme B [2, 4]: 5.522 ng/mL
Average IFN-g [2, 4]: 0.772 ng/mL
Average IL-2 [2, 4]: 0.105 ng/mL
Average Number of living M21 tumor cells [2, 4]: 5574
Average Granzyme B ([2]; Ex. 107 0.1 μM, no Ig): 3.645 ng/mL
Average IFN-g ([2]; Ex. 107 0.1 μM, no Ig): 0.313 ng/mL
Average IL-2 ([2]; Ex. 107 0.1 μM, no Ig): 0.106 ng/mL
Average Number of living M21 tumor cells ([2]; Ex. 107 0.1 μM, no Ig): 9029
Average Granzyme B [2, 5]: 3.905 ng/mL
Average IFN-g [2, 5]: 0.363 ng/mL
Average IL-2 [2, 5]: 0.100 ng/mL
Average Number of living M21 tumor cells [2, 5]: 10688
Average Granzyme B ([2]; Ex. 107 0.1 μM, with Nivolumab): 9.246 ng/mL
Average IFN-g ([2]; Ex. 107 0.1 μM, with Nivolumab): 2.282 ng/mL
Average IL-2 ([2]; Ex. 107 0.1 μM, with Nivolumab): 0.258 ng/mL
Average Number of living M21 tumor cells ([2]; Ex. 107 0.1 μM, with Nivolumab): 3361
Average Granzyme B ([2]; Ex. 107 0.3 μM, no Ig): 5.469 ng/mL
Average IFN-g ([2]; Ex. 107 0.3 μM, no Ig): 1.114 ng/mL
Average IL-2 ([2]; Ex. 107 0.3 μM, no Ig): 0.259 ng/mL
Average Number of living M21 tumor cells ([2]; Ex. 107 0.3 μM, no Ig): 3822
Average Granzyme B [2, 6]: 6.001 ng/mL
Average IFN-g [2, 6]: 1.098 ng/mL
Average IL-2 [2, 6]: 0.222 ng/mL
Average Number of living M21 tumor cells [2, 6]: 4339
Average Granzyme B ([2]; Ex. 107 0.3 μM, with Nivolumab): 12.040 ng/mL
Average IFN-g ([2]; Ex. 107 0.3 μM, with Nivolumab): 4.565 ng/mL
Average IL-2 ([2]; Ex. 107 0.3 μM, with Nivolumab): 0.590 ng/mL
Average Number of living M21 tumor cells ([2]; Ex. 107 0.3 μM, with Nivolumab): 1648
Average Granzyme B ([2]; Ex. 107 1 μM, no Ig): 7.246 ng/mL
Average IFN-g ([2]; Ex. 107 1 μM, no Ig): 1.963 ng/mL
Average IL-2 ([2]; Ex. 107 1 μM, no Ig): 0.389 ng/mL
Average Number of living M21 tumor cells ([2]; Ex. 107 1 μM, no Ig): 2642
Average Granzyme B ([2]; Ex. 107 1 μM, with Ipilimumab): 7.906 ng/mL
Average IFN-g ([2]; Ex. 107 1 μM, with Ipilimumab): 2.350 ng/mL
Average IL-2 ([2]; Ex. 107 1 μM, with Ipilimumab): 0.478 ng/mL
Average Number of living M21 tumor cells ([2]; Ex. 107 1 μM, with Ipilimumab): 2104
Average Granzyme B ([2]; Ex. 107 1 μM, with Nivolumab): 12.985 ng/mL
Average IFN-g ([2]; Ex. 107 1 μM, with Nivolumab): 5.846 ng/mL
Average IL-2 ([2]; Ex. 107 1 μM, with Nivolumab): 0.954 ng/mL
Average Number of living M21 tumor cells ([2]; Ex. 107 1 μM, with Nivolumab): 1574
Average Granzyme B ([2]; Ex. 107 3 μM, no Ig): 8.208 ng/mL
Average IFN-g ([2]; Ex. 107 3 μM, no Ig): 2.469 ng/mL
Average IL-2 ([2]; Ex. 107 3 μM, no Ig): 0.523 ng/mL
Average Number of living M21 tumor cells ([2]; Ex. 107 3 μM, no Ig): 2075
Average Granzyme B ([2]; Ex. 107 3 μM, with Ipilimumab): 9.283 ng/mL
Average IFN-g ([2]; Ex. 107 3 μM, with Ipilimumab): 2.745 ng/mL
Average IL-2 ([2]; Ex. 107 3 μM, with Ipilimumab): 0.555 ng/mL
Average Number of living M21 tumor cells ([2]; Ex. 107 3 μM, with Ipilimumab): 2083
Average Granzyme B ([2]; Ex. 107 3 μM, with Nivolumab): 14.403 ng/mL
Average IFN-g ([2]; Ex. 107 3 μM, with Nivolumab): 6.041 ng/mL
Average IL-2 ([2]; Ex. 107 3 μM, with Nivolumab): 1.285 ng/mL
Average Number of living M21 tumor cells ([2]; Ex. 107 3 μM, with Nivolumab): 1429
Average Granzyme B ([2]; Ex. 107 10 μM, no Ig): 8.378 ng/mL
Average IFN-g ([2]; Ex. 107 10 μM, no Ig): 3.113 ng/mL
Average IL-2 ([2]; Ex. 107 10 μM, no Ig): 0.643 ng/mL
Average Number of living M21 tumor cells ([2]; Ex. 107 10 μM, no Ig): 2000
Average Granzyme B ([2]; Ex. 107 10 μM, with Ipilimumab): 8.227 ng/mL
Average IFN-g ([2]; Ex. 107 10 μM, with Ipilimumab): 3.171 ng/mL
Average IL-2 ([2]; Ex. 107 10 μM, with Ipilimumab): 0.669 ng/mL
Average Number of living M21 tumor cells ([2]; Ex. 107 10 μM, with Ipilimumab): 2033
Average Granzyme B ([2]; Ex. 107 10 μM, with Nivolumab): 13.079 ng/mL
Average IFN-g ([2]; Ex. 107 10 μM, with Nivolumab): 6.729 ng/mL
Average IL-2 ([2]; Ex. 107 10 μM, with Nivolumab): 1.596 ng/mL
Average Number of living M21 tumor cells ([2]; Ex. 107 10 μM, with Nivolumab): 1799
reduction of viable tumor cells ([2]; example 107 in the presence of Nivolumab): even more pronounced and reached with lower compound concentrations in the presence of Nivolumab
enhancement of cytokine production ([2]; example 107 together with anti-PD-1 antibody (Nivolumab), CD8 T cells & M21): the enhancement of cytokine production was synergistic, i.e. more than additive
granzyme release upon tumor-cell contact ([2]; example 107 with PD-1 blockade, CD8 T cells & M21): mediated an synergistic enhancement of the cytotoxic effector granzyme release upon tumor-cell contact
viable tumor cells ([2]; immune cell cocultures with M21 tumor cells): strong reduction of viable tumor cells
cytokine secretion or other signs of T-cell activation (non-stimulated PBMCs): did not enhance cytokine secretion or other signs of T-cell activation
